Data as given in PMC9800617, “Pharmacokinetics/pharmacodynamics of polymyxin B in patients with bloodstream infection caused by carbapenem-resistant Klebsiella pneumoniae” (Frontiers in Pharmacology, 2022).
Where two headings read alike, the source gives them in different places. Bridge positions count the residues as written; N and C are the ends. Square brackets hold non-standard residues; d marks the D form. Peptide text beside a SMILES is read from it. * marks the point of attachment. X1 = CC[C@H](C)CCCCC(=O)*; Dab = NCC[C@H](N)C(=O)O

Columns and labels:
[1] = Plasma pharmacokinetics of polymyxin B in CRKP BSI patients (LC-MS/MS; non-compartmental and compartmental); format: in vivo, human; settings: mean ± SD
Protocol: Polymyxin B Sulphate for Injection (Lot No. A-1411137) containing 72.0% polymyxin B1 and B1-Ile and 12.1% polymyxin B2 was provided by SPH No. 1 Biochemical & Pharmaceutical Co., Ltd. (Shanghai, China). Prior to administration, polymyxin B was dissolved in 50–100 ml normal saline as per the manufacturer’s instructions then administered intravenously at a dose of 1.25 mg/kg every 12 h (2-h infusion) with an initial loading dose of 2.5 mg/kg (3-h infusion). Treatment lasted for 7–14 days as per treatment guidelines ([Rhodes et al., 2017]). Adverse events were closely monitored and recorded for each patient.
Blood samples (4 mL) for pharmacokinetic analysis were collected in tubes with EDTA-K2 as the anticoagulant immediately before and after administration of the polymyxin B loading dose (the first dose) and immediately before administration of the second dose. Subsequent blood samples were collected during the second visit (5th, 6th or 7th dosing) consisting of a sample immediately prior to the infusion and at .5, 1, 2, 3, 4, 5, 6, 7, 8, 10, and 12 h following the commencement of the infusion. If possible, a final blood sample was collected 24 h after the commencement of the last infusion. All blood samples were centrifuged (4°C, 2,000 g) and plasma collected and stored at −80°C until analysis.
The concentrations of polymyxin B1 (including B1-Ile) and polymyxin B2 were determined using a validated liquid chromatography-tandem mass spectrometry (LC-MS/MS) method ([Liu et al., 2020]). […] The calibration range was .050–5.00 mg/L for polymyxin B1 and .011–.549 mg/L for polymyxin B2. The concentration of polymyxin B was calculated by the sum of concentrations of polymyxin B1 and B2 using molar terms and their molecular weights (polymyxin B1 is 1203.48 g/mol, polymyxin B2 is 1189.45 g/mol).
The PK parameters of polymyxin B were calculated using Phoenix WinNonlin 8.0 (Certara^TM, USA) with non-compartmental and compartmental methods. PPK analysis was conducted using NONMEM 7.4 (Icon Development Solutions, Ellicott City, MD) with G77 FORTRAN complier and FOCEI algorithm. Results from BSI patients in the present study and healthy subjects in a previous study were combined ([Liu et al., 2021]). One- and two-compartment models were tested during development of the base model. Models were developed and evaluated based on an objective function value and goodness-of-fit plots. The covariates were selected using a forward inclusion and backward elimination strategy. The screened covariates were sex, age, body weight, height, body mass index (BMI), creatinine clearance (CLcr), albumin, hemoglobin, total protein, total bilirubin, serum alanine aminotransferase (ALT), serum aspartate aminotransferase (AST), serum creatinine, Sequential Organ Failure Assessment (SOFA) score, and disease state (BSI patients were defined as 1 and healthy subjects were defined as 2). Covariates were included in the model based on the criteria of OFV requiring a decrease of 3.84 (p < .05) in the forward inclusion and an increase of greater of 10.83 (p < .001) in the backward elimination. Bootstrap sampling and visual predictive checks (VPCs) were utilized to validate the robustness of the final model.

[2] = system: carbapenem-resistant K. pneumoniae (CRKP) bloodstream infections; assay: Microbiological and clinical efficacy in CRKP bloodstream infection; format: in vivo, human; settings: for Microbiological efficacy: blood culture; for Clinical efficacy: evaluated when the subject withdrew or completed the study; for 28-day survival: 14 days of treatment
Protocol: This prospective, multi-centered, single-armed and open-label clinical trial was conducted in accordance with Good Clinical Practice, International Conference on Harmonization guidelines, and in compliance with the World Medical Association Declaration of Helsinki and was approved by the Ethics Committee of Sir Run Run Shaw Hospital, College of Medicine, Zhejiang University, Hangzhou, China, and other participating centers ([Williams, 2008]). Written informed consent was obtained from each patient or his/her representative before enrollment. Patients with CRKP-positive blood cultures and with an estimated glomerular filtration rate (eGFR) of 60–120 ml/min were included. The inclusion and exclusion criteria are shown in Supplementary Table S1. This clinical trial was registered at http://www.chictr.org.cn (registration number: ChiCTR 1900021137) and was conducted across 2019 and 2020.
The definition of different population groups for safety and efficacy analysis is shown in Supplementary Table S2. Briefly, safety was evaluated based on adverse events (AEs) in patients who received at least one polymyxin B dose. Adverse events were recorded based on patient self-reporting as well as abnormal laboratory test results including serum chemistry and routine blood and urinary testing. Acute kidney injury (AKI) was graded according to the RIFLE criteria ([Bellomo et al., 2004]). The primary endpoint was culture-confirmed bacterial eradication of CRKP from the blood evaluated by blood cultures taken every 3 days following the first dose of polymyxin B administration. Secondary endpoints were clinical outcome (clinical cure or improvement, Supplementary Table S3) evaluated in patients who received at least 3 days of polymyxin B treatment, and 28-day all-cause mortality evaluated in patients who completed 14 days of polymyxin B treatment.

[3] = healthy Chinese subjects, ref Liu et al., 2021, cited from earlier work
From the text: Neurotoxicity is another major dose-limiting factor for the polymyxins, although it often goes unreported given many patients receiving polymyxins are mechanically ventilated which makes assessment difficult. Polymyxin-induced neurotoxicity is very likely dose-dependent and is characterized by symptoms such as dizziness, vertigo, visual disturbances, confusion, hallucinations, seizures, ataxia, facial and peripheral parenthesis, and pruritus ([Falagas and Kasiakou, 2006]; [Weinstein et al., 2009]; [Wahby et al., 2010]; [Honore et al., 2013]). While neurologic side effects such as parenthesis h ...

[4] = human, steady state, 1.25 mg/kg/12 h (2-h iv infusion), plasma, LC-MS/MS, non-compartmental

With `CC[C@H](C)CCCCC(=O)N[C@@H](CCN)C(=O)N[C@H](C(=O)N[C@@H](CCN)C(=O)N[C@H]1CCNC(=O)[C@H]([C@@H](C)O)NC(=O)[C@H](CCN)NC(=O)[C@H](CCN)NC(=O)[C@H](CC(C)C)NC(=O)[C@@H](Cc2ccccc2)NC(=O)[C@H](CCN)NC1=O)[C@@H](C)O` [polymyxin B] (X1-[Dab]T[Dab][Dab][Dab][dF]L[Dab][Dab]T; lactam 4-C) the Cmax ([1]; human, 2.5 mg/kg loading dose, 3-h iv infusion, plasma, LC-MS/MS, read-out: Cmax following the loading dose) was 5530 ± 1800 ng/mL, the level at 12 h ([1]; human, 2.5 mg/kg loading dose, 3-h iv infusion, plasma, LC-MS/MS, read-out: Cmin (12 h) following the loading dose) was 1620 ± 410 ng/mL and the clearance ([1]; human, plasma, iv, two-compartmental analysis, read-out: CL, clearance from the central compartment (converted)) was 0.433 mL/min/kg. For the same compound, the Vd [1, 4] was 0.49 ± 0.142 L/kg, the half-life [1, 4] was 12.5 ± 3.11 h and the AUC(0-t) ([1]; human, steady state, 1.25 mg/kg/12 h (2-h iv infusion), plasma, LC-MS/MS, non-compartmental, read-out: AUC12h) was 39800 ± 12500 ng·h/mL. The clearance ([1]; human, steady state, 1.25 mg/kg/12 h (2-h iv infusion), plasma, LC-MS/MS, non-compartmental, read-out: CL (converted)) was 0.467 mL/min/kg, the Cmax ([1]; human, steady state, 1.25 mg/kg/12 h (2-h iv infusion), plasma, LC-MS/MS, non-compartmental, read-out: Cmax) was 5420 ± 1690 ng/mL and the “Cavg (Css,avg)” value ([1]; steady state, 1.25 mg/kg/12 h (2-h iv infusion), plasma, LC-MS/MS, non-compartmental) was 3350 ± 1060 ng/mL. For the same compound, the “K10, elimination rate constant” value ([1]; two-compartmental analysis) was 0.165 ± 0.065 h⁻¹, the “K12, rate constant central to peripheral compartment” value ([1]; two-compartmental analysis) was 0.702 ± 0.395 h⁻¹ and the “K21, rate constant peripheral to central compartment” value ([1]; two-compartmental analysis) was 0.214 ± 0.137 h⁻¹. The “V1, central volume of distribution” value ([1]; two-compartmental analysis) was 0.163 ± 0.036 L/kg, the “V2, peripheral volume of distribution” value ([1]; two-compartmental analysis) was 0.565 ± 0.243 L/kg and the “patients alive 28 days after the commencement of therapy” value ([2]; 4 patients who completed the 14-day treatment protocol) was “all 4”. For the same compound, the “clinical cure or improvement” value ([2]; 6/8 patients) was 75%, the “time to negative blood cultures after commencing therapy” value ([2]; all 8 patients evaluated for microbiological efficacy) was ≤ 3 days and the Microbiological efficacy ([2]; patient 1) was “Eradication”. For the same compound, the Clinical efficacy ([2]; patient 1) was “Not improved”, the Microbiological efficacy ([2]; patient 2) was “Eradication” and the Clinical efficacy ([2]; patient 2) was “Improved”. For the same compound, the 28-day survival ([2]; patient 3) was “Yes”, the Microbiological efficacy ([2]; patient 3) was “Eradication” and the Clinical efficacy ([2]; patient 3) was “Cure”. For the same compound, the Microbiological efficacy ([2]; patient 5) was “Eradication”, the Clinical efficacy ([2]; patient 5) was “Improved” and the 28-day survival ([2]; patient 6) was “Yes”. For the same compound, the Microbiological efficacy ([2]; patient 6) was “Eradication”, the Clinical efficacy ([2]; patient 6) was “Cure” and the 28-day survival ([2]; patient 7) was “Yes”. For the same compound, the Microbiological efficacy ([2]; patient 7) was “Eradication”, the Clinical efficacy ([2]; patient 7) was “Cure” and the Microbiological efficacy ([2]; patient 8) was “Eradication”. For the same compound, the Clinical efficacy ([2]; patient 8) was “Improved”, the 28-day survival ([2]; patient 9) was “Yes” and the Microbiological efficacy ([2]; patient 9) was “Eradication”. For the same compound, the Clinical efficacy ([2]; patient 9) was “Failure”, the “clinical cure or improvement” value ([2]; patients evaluated for efficacy (n = 8)) was 6 of 8 and the “subjects with perioral paraesthesia, dizziness, and numbness of extremities” value ([3]; single dose 0.75 mg/kg, 1-h infusion, 7 of 10) was 70%. The “subjects with perioral paraesthesia, dizziness, and numbness of extremities” value ([3]; single dose 1.5 mg/kg, 1.5-h infusion) was “all subjects”.
